Measured values published in patent US12479856B2, “Pharmaceutical compounds for the treatment of complement mediated disorders” (Achillion Pharmaceuticals, Inc., priority 2019, dated 2025).

These molecules were tested against T1, Human complement C1s enzyme (Homo sapiens, UniProt P09871) (assay: Human C1s Enzyme Assay). Details: Table 1; C1s purified from human serum, 1.16 nM; substrate Z-L-Lys-SBzl; read-out: C1s Protease Activity.
T1 construct: purified from human serum, Complement Technology, Inc; purchased Complement Technology, Inc; host or cells: human serum (plasma-derived natural protein)
T1 sequence (P09871 438-688 limits assumed): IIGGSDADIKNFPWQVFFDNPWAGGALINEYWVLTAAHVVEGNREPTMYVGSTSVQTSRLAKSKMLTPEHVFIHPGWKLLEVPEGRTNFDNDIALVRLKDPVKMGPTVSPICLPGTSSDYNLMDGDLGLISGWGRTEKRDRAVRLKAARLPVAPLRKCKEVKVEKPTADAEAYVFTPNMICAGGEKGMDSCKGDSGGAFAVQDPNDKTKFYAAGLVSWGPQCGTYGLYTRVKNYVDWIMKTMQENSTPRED
T1 sequence (P09871 16-437 partner limits assumed): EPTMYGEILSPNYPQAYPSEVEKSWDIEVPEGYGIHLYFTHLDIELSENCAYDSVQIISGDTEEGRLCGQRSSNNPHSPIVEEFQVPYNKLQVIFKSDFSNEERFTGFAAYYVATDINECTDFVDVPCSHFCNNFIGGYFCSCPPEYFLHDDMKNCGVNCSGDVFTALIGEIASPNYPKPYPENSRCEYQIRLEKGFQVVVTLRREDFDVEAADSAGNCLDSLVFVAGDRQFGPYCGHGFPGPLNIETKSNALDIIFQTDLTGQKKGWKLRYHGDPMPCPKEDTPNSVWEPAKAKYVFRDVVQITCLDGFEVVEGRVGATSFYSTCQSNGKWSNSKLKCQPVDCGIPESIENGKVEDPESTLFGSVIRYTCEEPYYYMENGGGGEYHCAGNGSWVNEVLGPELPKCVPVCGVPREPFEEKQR
Format: biochemical
Description: Example 4. Human C1s Enzyme Assay
Human complement C1s enzyme (purified from human serum, Complement Technology, Inc.) at 1.16 nM final concentration is incubated with test compound at various concentrations for 5 min at room temperature in 50 mM Tris, 1 M NaCl, pH 7.5. A synthetic substrate Z-L-Lys-SBzl and DTNB (Ellman's reagent) are added to final concentrations of 100 μM each. Absorbance at 405 nm (A405) is recorded at 30 second intervals for 30 min using a microplate spectrophotometer. IC50 values are calculated by nonlinear regression of complement C1s reaction rates as a function of test compound concentration.

IC50	SMILES
> 1000 nM	CO[C@H]1C[C@H](C(=O)CNC(=O)c2ccc(Oc3ccccc3)cc2)[C@H](C(=O)NCc2cc(C(=N)N)cs2)C1 [Compound 34, N-(2-((1S,2R,4S)-2-(((4-carbamimidoylthiophen-2-yl)methyl)carbamoyl)-4-methoxycyclopentyl)-2-oxoethyl)-4-phenoxybenzamide]
100 to 1000 nM	CO[C@H]1C[C@@H](C(=O)CNC(=O)c2ccc(Oc3ccccc3)cc2)[C@H](C(=O)NCc2cc(C(=N)N)cs2)C1 [Compound 35, N-(2-((1R,2R,4S)-2-(((4-carbamimidoylthiophen-2-yl)methyl)carbamoyl)-4-methoxycyclopentyl)-2-oxoethyl)-4-phenoxybenzamide]
100 to 1000 nM	N=C(N)c1csc(CNC(=O)[C@@H]2CCCN2C(=O)NNC(=O)c2ccc(Oc3ccccc3)cc2)c1 [Compound 36, (S)-N-((4-carbamimidoylthiophen-2-yl)methyl)-1-(2-(4-phenoxybenzoyl)hydrazine-1-carbonyl)pyrrolidine-2-carboxamide]

Same assay, conditions: Table 2; C1s purified from human serum, 1.16 nM; substrate Z-L-Lys-SBzl; read-out: C1s Protease Activity

IC50	SMILES
> 1000 nM	N=C(N)c1csc(CNC(=O)[C@@H]2CCCN2CCCCc2ccc(Oc3ccccc3)cc2)c1 [Compound 37, (S)-N-((4-carbamimidoylthiophen-2-yl)methyl)-1-(4-(4-phenoxyphenyl)butyl)pyrrolidine-2-carboxamide]
100 to 1000 nM	N=C(N)c1csc(CNC(=O)[C@@H]2CCCN2C(=O)COCc2ccc(Oc3ccccc3)cc2)c1 [Compound 38, (S)-N-((4-carbamimidoylthiophen-2-yl)methyl)-1-(2-((4-phenoxybenzyl)oxy)acetyl)pyrrolidine-2-carboxamide]
< 100 nM	Cc1cc(C(=O)NCC(=O)N2CCC[C@H]2C(=O)NCc2cc(C(=N)N)cs2)ccc1Oc1ccccc1 [Compound 39, (S)-N-((4-carbamimidoylthiophen-2-yl)methyl)-1-((3-methyl-4-phenoxybenzoyl)glycyl)pyrrolidine-2-carboxamide]
100 to 1000 nM	C=C(CCC(=O)N1CCC[C@H]1C(=O)NCc1cc(C(=N)N)cs1)c1ccc(Oc2ccccc2)cc1 [Compound 40, (S)-N-((4-carbamimidoylthiophen-2-yl)methyl)-1-(4-(4-phenoxyphenyl)pent-4-enoyl)pyrrolidine-2-carboxamide]
< 100 nM	CCCc1cc(C(=O)NCC(=O)N2CCC[C@H]2C(=O)NCc2cc(C(=N)N)cs2)ccc1Oc1ccccc1 [Compound 41, (S)-N-((4-carbamimidoylthiophen-2-yl)methyl)-1-((4-phenoxy-3-propylbenzoyl)glycyl)pyrrolidine-2-carboxamide]
< 100 nM	CCCCCc1cc(C(=O)NCC(=O)N2CCC[C@H]2C(=O)NCc2cc(C(=N)N)cs2)ccc1Oc1ccccc1 [Compound 42, (S)-N-((4-carbamimidoylthiophen-2-yl)methyl)-1-((3-pentyl-4-phenoxybenzoyl)glycyl)pyrrolidine-2-carboxamide]
< 100 nM	CCCCc1cc(C(=O)NCC(=O)N2CCC[C@H]2C(=O)NCc2cc(C(=N)N)cs2)ccc1Oc1ccccc1 [Compound 43, (S)-1-((3-butyl-4-phenoxybenzoyl)glycyl)-N-((4-carbamimidoylthiophen-2-yl)methyl)pyrrolidine-2-carboxamide]
> 1000 nM	N=C(N)c1csc(CNC(=O)[C@@H]2CCCN2C(=O)CCC2(c3ccc(Oc4ccccc4)cc3)CC2)c1 [Compound 44, (S)-N-((4-carbamimidoylthiophen-2-yl)methyl)-1-(3-(1-(4-phenoxyphenyl)cyclopropyl)propanoyl)pyrrolidine-2-carboxamide]
< 100 nM	Cc1cc(C(=O)NCC(=O)N2CC3(CCCC3)C[C@H]2C(=O)NCc2cc(C(=N)N)cs2)ccc1Oc1ccccc1 [Compound 46, (S)-N-((4-carbamimidoylthiophen-2-yl)methyl)-2-((3-methyl-4-phenoxybenzoyl)glycyl)-2-azaspiro[4.4]nonane-3-carboxamide]
< 100 nM	Cc1cc(C(=O)NCC(=O)N2CC3(C[C@H]2C(=O)NCc2cc(C(=N)N)cs2)OCCO3)ccc1Oc1ccccc1 [Compound 47, (S)-N-((4-carbamimidoylthiophen-2-yl)methyl)-7-((3-methyl-4-phenoxybenzoyl)glycyl)-1,4-dioxa-7-azaspiro[4.4]nonane-8-carboxamide]
< 100 nM	Cc1cc(C(=O)NCC(=O)N2[C@H]3C[C@@]3(C)C[C@H]2C(=O)NCc2cc(C(=N)N)cs2)ccc1Oc1ccccc1 [Compound 48, (1S,3S,5S)-N-((4-carbamimidoylthiophen-2-yl)methyl)-5-methyl-2-((3-methyl-4-phenoxybenzoyl)glycyl)-2-azabicyclo[3.1.0]hexane-3-carboxamide]
< 100 nM	Cc1cc(C(=O)NCC(=O)N2CC3(C[C@H]2C(=O)NCc2nc(C(=N)N)cs2)OCCO3)ccc1Oc1ccccc1 [Compound 49, (S)-N-((4-carbamimidoylthiazol-2-yl)methyl)-7-((3-methyl-4-phenoxybenzoyl)glycyl)-1,4-dioxa-7-azaspiro[4.4]nonane-8-carboxamide]
< 100 nM	Cc1cc(C(=O)NCC(=O)N2CC3(C[C@H]2C(=O)NCc2nc(C(=N)N)co2)OCCO3)ccc1Oc1ccccc1 [Compound 51, (S)-N-((4-carbamimidoyloxazol-2-yl)methyl)-7-((3-methyl-4-phenoxybenzoyl)glycyl)-1,4-dioxa-7-azaspiro[4.4]nonane-8-carboxamide]
< 100 nM	N=C(N)c1csc(CNC(=O)[C@@H]2CCCN2C(=O)CCC(=O)c2ccc(Oc3ccccc3)cc2)c1 [Compound 52, (S)-N-((4-carbamimidoylthiophen-2-yl)methyl)-1-(4-oxo-4-(4-phenoxyphenyl)butanoyl)pyrrolidine-2-carboxamide]
< 100 nM	N=C(N)c1csc(CNC(=O)[C@@H]2CCCN2C(=O)CCCc2ccc(Oc3ccccc3)cc2)c1 [Compound 53, (S)-N-((4-carbamimidoylthiophen-2-yl)methyl)-1-(4-(4-phenoxyphenyl)butanoyl)pyrrolidine-2-carboxamide]
> 1000 nM	N=C(N)c1csc(CNC(=O)[C@@H]2CCCN2CCCC(=O)c2ccc(Oc3ccccc3)cc2)c1 [Compound 54, (S)-N-((4-carbamimidoylthiophen-2-yl)methyl)-1-(4-oxo-4-(4-phenoxyphenyl)butyl)pyrrolidine-2-carboxamide]
> 1000 nM	NCc1csc(CNC(=O)[C@@H]2CCCN2C(=O)CNC(=O)c2ccc(Oc3ccccc3)cc2)c1 [Compound 55, (S)-N-((4-(aminomethyl)thiophen-2-yl)methyl)-1-((4-phenoxybenzoyl)glycyl)pyrrolidine-2-carboxamide]
< 100 nM	N=C(N)c1csc(CNC(=O)[C@@H]2CCCN2C(=O)CNC(=O)c2ccc(Cc3ccccc3)cc2)c1 [Compound 56, (S)-1-((4-benzylbenzoyl)glycyl)-N-((4-carbamimidoylthiophen-2-yl)methyl)pyrrolidine-2-carboxamide]
< 100 nM	CC(C)(c1ccccc1)c1ccc(C(=O)NCC(=O)N2CCC[C@H]2C(=O)NCc2cc(C(=N)N)cs2)cc1 [Compound 57, (S)-N-((4-carbamimidoylthiophen-2-yl)methyl)-1-((4-(2-phenylpropan-2-yl)benzoyl)glycyl)pyrrolidine-2-carboxamide]
< 100 nM	CC(c1ccccc1)c1ccc(C(=O)NCC(=O)N2CCC[C@H]2C(=O)NCc2cc(C(=N)N)cs2)cc1 (stereo partly drawn) [Compound 58, (2S)-N-((4-carbamimidoylthiophen-2-yl)methyl)-1-((4-(1-phenylethyl)benzoyl)glycyl)pyrrolidine-2-carboxamide]
